Results published in ChEMBL document CHEMBL1130502, “Lipopeptide antifungal agents: Amine conjugates of the semi-synthetic pneumocandins L-731,373 and L-733,560” (Bioorg Med Chem Lett, 1997).
In brackets after ≈: the same amount, converted by molar mass. *1 amine or outer side, *2 acyl side, *3 side chain or, on linkers, in order; H or OH if unused. Where a SMILES comes first, the peptide text is derived from it. Bridges are numbered along the chain shown (N, C = ends). [ ]: non-standard residue; d: D form. The star is where a group is joined. ξ: configuration not given here. ξOrn(4R-OH,5R-OH) = O=C(C(C[C@@H](O)[C@@H](O)N[*:3])N[*:1])[*:2]; hTyr(3S-OH,4S-OH) = N[C@H](C(=O)O)[C@H](O)[C@@H](O)c1ccc(O)cc1; Orn(3R-OH) = NCC[C@@H](O)[C@H](N)C(=O)O; X2 = O=C(C1CN([*:1])C[C@@H]1O)[*:2]; ξPro(4R-OH) = O=C(O)C1C[C@@H](O)CN1; X1 = CCC(C)CC(C)CCCCCCCCC(=O)*

Key:
[1] = system: Mus musculus; experiment: In vivo effective intraperitoneal dose to achieve least 50% survival in a mouse model of disseminated aspergillosis; assay type: functional; conditions: ip
[2] = system: Candida albicans; experiment: Tested for minimum fungicidal concentration (MFC) against Candida albicans (MY 1055); assay type: functional
[3] = organism: Mus musculus; experiment: […] anti-candida activity expressed as ED99.9 in a mouse model of disseminated candidiasis (TOKA); assay type: functional
[4] = organism: Mus musculus; experiment: Percentage of mice with complete eradication of candida in kidneys; assay type: functional, Kidney
[5] = target: 1,3-beta-glucan synthase (Candida glabrata, UniProt F5BCZ9); experiment: Inhibition of 1,3-beta-glucan synthase; design: species or system Candida glabrata CBS 138
[6] = Acute toxicity in mice after intravenous administration; conditions: mouse, in vivo
[7] = system: Pichia kudriavzevii; experiment: Tested for in vitro minimum fungicidal concentration (MFC) against C. krusei; 0.25-0.5; assay type: functional
[8] = system: Nakaseomyces glabratus; experiment: Tested for in vitro minimum fungicidal concentration (MFC) against C. glabrata; 0.125-0.5; assay type: functional
[9] = system: Candida tropicalis; experiment: Tested for in vitro minimum fungicidal concentration (MFC) against C. tropicalis; 0.25-0.5; assay type: functional
[10] = system: Clavispora lusitaniae; experiment: Tested for in vitro minimum fungicidal concentration (MFC) against C. lusitaniae; 0.5-2; assay type: functional
[11] = system: Candida albicans; experiment: Tested for in vitro minimum fungicidal concentration (MFC) against C. albicans; 0.06-0.5; assay type: functional
[12] = system: Cryptococcus neoformans; experiment: Tested for in vitro minimum fungicidal concentration (MFC) against C. neoformans; 0.125-0.5; assay type: functional
[13] = system: Candida parapsilosis; experiment: Tested for in vitro minimum fungicidal concentration (MFC) against C. parapsilosis; 0.5-1; assay type: functional
[14] = system: Meyerozyma guilliermondii; experiment: Tested for in vitro minimum fungicidal concentration (MFC) against C. guilliermondii; 0.125-0.5; assay type: functional
[15] = system: Kluyveromyces marxianus; experiment: Tested for in vitro minimum fungicidal concentration (MFC) against C. pseudotropicalis; 0.125-0.5; assay type: functional

Chain of 1,3-beta-glucan synthase (F5BCZ9 whole entry): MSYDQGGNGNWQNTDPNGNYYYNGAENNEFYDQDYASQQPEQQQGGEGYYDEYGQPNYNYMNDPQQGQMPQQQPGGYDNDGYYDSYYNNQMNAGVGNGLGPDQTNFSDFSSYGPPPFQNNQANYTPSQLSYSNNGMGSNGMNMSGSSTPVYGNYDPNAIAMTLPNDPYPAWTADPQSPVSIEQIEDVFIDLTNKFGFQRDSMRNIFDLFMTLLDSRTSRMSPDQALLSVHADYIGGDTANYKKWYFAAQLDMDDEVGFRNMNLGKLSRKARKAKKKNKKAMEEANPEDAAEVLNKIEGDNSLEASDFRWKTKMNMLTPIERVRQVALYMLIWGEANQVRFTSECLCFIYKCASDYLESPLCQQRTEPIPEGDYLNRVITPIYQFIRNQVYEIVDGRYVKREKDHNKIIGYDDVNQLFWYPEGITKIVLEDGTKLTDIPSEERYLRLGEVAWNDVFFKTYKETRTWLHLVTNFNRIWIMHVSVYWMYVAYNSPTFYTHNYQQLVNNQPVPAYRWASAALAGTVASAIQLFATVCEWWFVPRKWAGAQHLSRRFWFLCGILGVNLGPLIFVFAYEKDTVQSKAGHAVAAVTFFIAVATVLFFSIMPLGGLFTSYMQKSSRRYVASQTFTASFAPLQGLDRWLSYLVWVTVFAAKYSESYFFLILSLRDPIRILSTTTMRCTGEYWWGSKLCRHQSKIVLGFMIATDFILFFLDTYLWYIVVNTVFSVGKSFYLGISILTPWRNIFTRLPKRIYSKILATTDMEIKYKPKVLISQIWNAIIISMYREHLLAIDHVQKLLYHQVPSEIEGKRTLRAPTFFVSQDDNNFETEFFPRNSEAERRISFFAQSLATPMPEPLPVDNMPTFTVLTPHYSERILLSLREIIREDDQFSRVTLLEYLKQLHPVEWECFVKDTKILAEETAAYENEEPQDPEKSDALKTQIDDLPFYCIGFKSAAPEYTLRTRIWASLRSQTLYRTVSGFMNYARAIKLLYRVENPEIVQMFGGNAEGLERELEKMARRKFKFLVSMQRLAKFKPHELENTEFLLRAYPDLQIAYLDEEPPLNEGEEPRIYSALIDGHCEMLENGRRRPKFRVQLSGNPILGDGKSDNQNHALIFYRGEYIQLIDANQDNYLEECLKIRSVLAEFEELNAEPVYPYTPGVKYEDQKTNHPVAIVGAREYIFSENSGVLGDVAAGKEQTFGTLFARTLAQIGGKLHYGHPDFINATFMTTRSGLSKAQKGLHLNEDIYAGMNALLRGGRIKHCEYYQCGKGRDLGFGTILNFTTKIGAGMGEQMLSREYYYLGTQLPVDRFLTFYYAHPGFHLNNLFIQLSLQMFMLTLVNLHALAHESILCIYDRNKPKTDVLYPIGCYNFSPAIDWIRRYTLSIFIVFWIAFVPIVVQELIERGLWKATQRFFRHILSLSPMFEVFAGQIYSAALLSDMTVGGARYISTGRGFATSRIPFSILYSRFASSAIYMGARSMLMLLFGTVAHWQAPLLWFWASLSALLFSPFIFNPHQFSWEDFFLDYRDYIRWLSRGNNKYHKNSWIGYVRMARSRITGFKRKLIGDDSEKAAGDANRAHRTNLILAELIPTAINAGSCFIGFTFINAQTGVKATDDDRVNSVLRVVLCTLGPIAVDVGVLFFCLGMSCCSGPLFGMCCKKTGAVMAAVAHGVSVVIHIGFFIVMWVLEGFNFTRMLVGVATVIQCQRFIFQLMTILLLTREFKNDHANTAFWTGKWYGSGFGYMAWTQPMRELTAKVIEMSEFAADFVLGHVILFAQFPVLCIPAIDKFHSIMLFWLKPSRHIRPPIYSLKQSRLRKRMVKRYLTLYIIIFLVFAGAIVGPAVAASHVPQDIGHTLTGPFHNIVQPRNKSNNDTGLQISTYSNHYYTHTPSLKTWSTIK

Q: Which ED50 [1] does the source give for `CCC(C)CC(C)CCCCCCCCC(=O)NC1C[C@@H](O)[C@@H](OCCN)NC(=O)C2CN(C[C@@H]2O)C(=O)[C@H]([C@H](O)CCNC(=O)[C@@H](N)CCCCN)NC(=O)[C@H]([C@H](O)[C@@H](O)c2ccc(O)cc2)NC(=O)C2C[C@@H](O)CN2C(=O)[C@H]([C@@H](C)O)NC1=O` (stereo partly specified) here?
A: Its ED50 is under 0.02 mg/kg.

Q: What about the MFC [2] of the same molecule?
A: Its MFC is 0.125 µg/mL (≈ 0.102 µM).

Q: And the ED99.9 [3]?
A: Its ED99.9 is 0.09 mg/kg.

Q: And the Sterilized [4]?
A: Its Sterilized is 0%.

Q: What about the IC50 [5] of the same molecule?
A: Its IC50 is 3 nM.

Q: And the Dose [6]?
A: The Dose was 60 mg/kg.

Q: For `CCC(C)CC(C)CCCCCCCCC(=O)NC1C[C@@H](O)[C@@H](O)NC(=O)C2CN(C[C@@H]2O)C(=O)[C@H]([C@H](O)CCNC(=O)CCCCN)NC(=O)[C@H]([C@H](O)[C@@H](O)c2ccc(O)cc2)NC(=O)C2C[C@@H](O)CN2C(=O)[C@H]([C@@H](C)O)NC1=O` (stereo partly specified), which MFC [2] is on record?
A: Its MFC is 0.5 µg/mL (≈ 0.435 µM).

Q: What about the ED99.9 [3] of the same molecule?
A: Its ED99.9 is 1.5 mg/kg.

Q: What about the Sterilized [4] of the same molecule?
A: The Sterilized was 0%.

Q: What about the IC50 [5] of the same molecule?
A: Its IC50 is 20 nM.

Q: What about the Dose [6] of the same molecule?
A: Its Dose is 250 mg/kg.

Q: Which MFC [2] does the source give for `CCC(C)CC(C)CCCCCCCCC(=O)NC1C[C@@H](O)[C@@H](O)NC(=O)C2CN(C[C@@H]2O)C(=O)[C@H]([C@H](O)CCNC(=O)CCCCCCN)NC(=O)[C@H]([C@H](O)[C@@H](O)c2ccc(O)cc2)NC(=O)C2C[C@@H](O)CN2C(=O)[C@H]([C@@H](C)O)NC1=O` (stereo partly specified) here?
A: The MFC was 2 µg/mL (≈ 1.7 µM).

Q: And the ED99.9 [3]?
A: The ED99.9 was over 1.5 mg/kg.

Q: And the Sterilized [4]?
A: Its Sterilized is 0%.

Q: And the Dose [6]?
A: Its Dose is 200 mg/kg.

Q: Which results are given for `CCC(C)CC(C)CCCCCCCCC(=O)NC1C[C@@H](O)[C@@H](O)NC(=O)C2CN(C[C@@H]2O)C(=O)[C@H]([C@H](O)CCNC(=O)CN)NC(=O)[C@H]([C@H](O)[C@@H](O)c2ccc(O)cc2)NC(=O)C2C[C@@H](O)CN2C(=O)[C@H]([C@@H](C)O)NC1=O` (stereo partly specified)?
A: MFC [2]: 0.5 µg/mL (≈ 0.451 µM); ED99.9 [3]: 0.375 mg/kg; Sterilized [4]: 20%; IC50 [5]: 15 nM; Dose [6]: 250 mg/kg

Q: Which MFC [2] does the source give for `CCC(C)CC(C)CCCCCCCCC(=O)NC1C[C@@H](O)[C@@H](O)NC(=O)C2CN(C[C@@H]2O)C(=O)[C@H]([C@H](O)CCNC(=O)CCN)NC(=O)[C@H]([C@H](O)[C@@H](O)c2ccc(O)cc2)NC(=O)C2C[C@@H](O)CN2C(=O)[C@H]([C@@H](C)O)NC1=O` (stereo partly specified) here?
A: Its MFC is 0.125 µg/mL (≈ 0.111 µM).

Q: And the ED99.9 [3]?
A: Its ED99.9 is 1.5 mg/kg.

Q: And the Sterilized [4]?
A: The Sterilized was 100%.

Q: What about the IC50 [5] of the same molecule?
A: Its IC50 is 25 nM.

Q: And the Dose [6]?
A: Its Dose is 250 mg/kg.

Q: For `CCC(C)CC(C)CCCCCCCCC(=O)NC1C[C@@H](O)[C@@H](O)NC(=O)C2CN(C[C@@H]2O)C(=O)[C@H]([C@H](O)CCNC(=O)CCCN)NC(=O)[C@H]([C@H](O)[C@@H](O)c2ccc(O)cc2)NC(=O)C2C[C@@H](O)CN2C(=O)[C@H]([C@@H](C)O)NC1=O` (stereo partly specified), which MFC [2] is on record?
A: Its MFC is under 0.06 µg/mL.

Q: And the ED99.9 [3]?
A: Its ED99.9 is 1.5 mg/kg.

Q: And the Sterilized [4]?
A: Its Sterilized is 40%.

Q: What about the IC50 [5] of the same molecule?
A: Its IC50 is 50 nM.

Q: What about the Dose [6] of the same molecule?
A: Its Dose is over 100 mg/kg.

Q: With `CCC(C)CC(C)CCCCCCCCC(=O)NC1C[C@@H](O)[C@@H](O)NC(=O)C2CN(C[C@@H]2O)C(=O)[C@H]([C@H](O)CCNC(=O)[C@@H](N)CN)NC(=O)[C@H]([C@H](O)[C@@H](O)c2ccc(O)cc2)NC(=O)C2C[C@@H](O)CN2C(=O)[C@H]([C@@H](C)O)NC1=O` (stereo partly specified) as the molecule, how does the ED50 [1] read?
A: The ED50 was over 1.25 mg/kg.

Q: What about the MFC [2] of the same molecule?
A: Its MFC is 1 µg/mL (≈ 0.879 µM).

Q: And the ED99.9 [3]?
A: The ED99.9 was 1.5 mg/kg.

Q: And the Sterilized [4]?
A: Its Sterilized is 100%.

Q: And the IC50 [5]?
A: The IC50 was 30 nM.

Q: And the Dose [6]?
A: Its Dose is over 250 mg/kg.

Q: Which results are given for `CCC(C)CC(C)CCCCCCCCC(=O)NC1C[C@@H](O)[C@@H](O)NC(=O)C2CN(C[C@@H]2O)C(=O)[C@H]([C@H](O)CCN)NC(=O)[C@H]([C@H](O)[C@@H](O)c2ccc(O)cc2)NC(=O)C2C[C@@H](O)CN2C(=O)[C@H]([C@@H](C)O)NC1=O` (stereo partly drawn) (X1-[ξOrn(4R-OH,5R-OH)]T[ξPro(4R-OH)][hTyr(3S-OH,4S-OH)][Orn(3R-OH)][X2]; lactam 1-C)?
A: ED50 [1]: > 20 mg/kg; MFC [2]: < 0.06 µg/mL; ED99.9 [3]: 0.375 mg/kg; Sterilized [4]: 70%; IC50 [5]: 10 nM; Dose [6]: 100 mg/kg

Q: With `C[C@@H]1[C@H](O)[C@@H](C)/C=C/C=C/C=C/C=C/C=C/C=C/C=C/[C@H](O[C@@H]2O[C@H](C)[C@@H](O)[C@H](N)[C@@H]2O)C[C@@H]2O[C@](O)(C[C@@H](O)C[C@@H](O)[C@H](O)CC[C@@H](O)C[C@@H](O)CC(=O)O[C@H]1C)C[C@H](O)[C@H]2C(=O)O` [AMPHOTERICIN B] as the molecule, how does the MFC90 [7] read?
A: Its MFC90 is 0.5 µg/mL (≈ 0.541 µM).

Q: And the MFC90 [8]?
A: Its MFC90 is 0.5 µg/mL (≈ 0.541 µM).

Q: What about the MFC90 [9] of the same molecule?
A: The MFC90 was 0.5 µg/mL (≈ 0.541 µM).

Q: And the MFC90 [10]?
A: The MFC90 was 2 µg/mL (≈ 2.16 µM).

Q: And the MFC90 [11]?
A: The MFC90 was 0.25 µg/mL (≈ 0.271 µM).

Q: What about the MFC90 [12] of the same molecule?
A: Its MFC90 is 0.5 µg/mL (≈ 0.541 µM).

Q: What about the MFC90 [13] of the same molecule?
A: Its MFC90 is 1 µg/mL (≈ 1.08 µM).

Q: What about the MFC90 [14] of the same molecule?
A: The MFC90 was 0.5 µg/mL (≈ 0.541 µM).

Q: What about the MFC90 [15] of the same molecule?
A: The MFC90 was 0.5 µg/mL (≈ 0.541 µM).
